From patent US20150004262A1, “ANESTHETIC AND THERAPEUTIC COMPOSITION FOR USE IN AQUACULTURE” (priority 2012, published 2015)

What was measured:
[1] = Experiment 8: oil residues in fish fillet tissue, sobaity; set-up: species or system Sparidentex hasta; settings: in vivo
Text: (§1) Thyme oil consists mainly of thymol. On the other hand, oregano oil consists mainly of carvacrol (40-70%) and thymol, while cinnamon oil consists mainly of (65 to 75% of the oil) is cinnamaldehyde.

[2] = Experiment 8: oil residues in fish fillet tissue, sheam; set-up: species or system Acanthopagrus latus; settings: in vivo
Text: as §1

serum MDA (TBARS) [3] = experiment: Serum TBARS assay, sheam; assay type: in vivo, Acanthopagrus latus
Text: (§2) C. Thiobarbituric Acid Reactive Substances (TRARS) Assay.

serum MDA (TBARS) [4] = experiment: Serum TBARS assay, sobaity; assay type: in vivo, Sparidentex hasta
Text: as §2

| Compound | residue in fillet tissue [1] | residue in fillet tissue [2] | MDA (serum MDA (TBARS) [3]) | Relative Activity (RA) in comparison to control serum (serum MDA (TBARS) [3]) | MDA (serum MDA (TBARS) [4]) | Relative Activity (RA) in comparison to control serum (serum MDA (TBARS) [4]) |
| --- | --- | --- | --- | --- | --- | --- |
| cinnamon oil (Cinnamomum zeylanicum) | 0.52 ppm/fish | 0.17 ppm/fish |  |  |  |  |
| Cc1ccc2ccccc2n1 [Quinaldene, quinaldine] |  |  | 0.0410 ± 0.002 nmol/mL | 89.13 | 0.0365 ± 0.003 nmol/mL | 79.27 |
